Test results: ChEMBL document CHEMBL1131253, “A pyridoxine cyclic phosphate and its 6-azoaryl derivative selectively potentiate and antagonize activation of P2X1 receptors” (J Med Chem, 1998)

Tests used:
P2X purinoceptor 1 = target: T1, P2X purinoceptor 1 (Rattus norvegicus, UniProt P47824); test: Compound was tested in a functional ion channel assay of ATP-induced current at recombinant rat P2X1 receptor expressed in Xenopus oocytes.; format: cell-based, Oocyte
T1 sequence (P47824 whole entry): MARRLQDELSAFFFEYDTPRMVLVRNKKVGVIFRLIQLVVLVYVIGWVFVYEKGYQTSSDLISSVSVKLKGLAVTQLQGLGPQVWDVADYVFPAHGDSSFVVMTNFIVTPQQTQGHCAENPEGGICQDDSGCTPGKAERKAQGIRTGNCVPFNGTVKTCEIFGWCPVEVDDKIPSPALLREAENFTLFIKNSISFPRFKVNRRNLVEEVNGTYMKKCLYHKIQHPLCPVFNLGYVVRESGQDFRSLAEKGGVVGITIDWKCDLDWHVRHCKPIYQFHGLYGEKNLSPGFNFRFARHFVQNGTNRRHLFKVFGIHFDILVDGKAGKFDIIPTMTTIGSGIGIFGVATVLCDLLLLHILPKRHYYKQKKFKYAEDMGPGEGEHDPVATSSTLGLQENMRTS

P2X purinoceptor 3 = target: T2, P2X purinoceptor 3 (Rattus norvegicus, UniProt P49654); test: Compound was tested in a functional ion channel assay of ATP-induced current at recombinant rat P2X3 receptor expressed in Xenopus oocytes.; format: cell-based, Oocyte
T2 sequence (P49654 whole entry): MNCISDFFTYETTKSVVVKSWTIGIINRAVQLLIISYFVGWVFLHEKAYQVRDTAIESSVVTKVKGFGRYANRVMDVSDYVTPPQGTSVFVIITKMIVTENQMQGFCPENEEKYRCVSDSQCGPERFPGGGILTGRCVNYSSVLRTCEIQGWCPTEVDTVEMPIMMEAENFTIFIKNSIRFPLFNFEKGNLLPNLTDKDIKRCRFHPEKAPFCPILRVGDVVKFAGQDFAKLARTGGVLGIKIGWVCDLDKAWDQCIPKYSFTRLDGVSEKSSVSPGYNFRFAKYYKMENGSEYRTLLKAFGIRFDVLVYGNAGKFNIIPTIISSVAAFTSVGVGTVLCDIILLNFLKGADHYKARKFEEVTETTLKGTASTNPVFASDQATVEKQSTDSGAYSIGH

| EC50 (P2X purinoceptor 1) | IC50 (P2X purinoceptor 1) | IC50 (P2X purinoceptor 3) | SMILES |
| --- | --- | --- | --- |
| 5.9 µM | – | – | Cc1ncc2c(c1O)COP(=O)(O)OC2 |
| – | 0.0425 µM | – | Cc1nc(/N=N/c2cc(S(=O)(=O)O)ccc2S(=O)(=O)O)c(COP(=O)(O)O)c(C=O)c1O [ISOPPADS] |
| – | 10.2 µM | 58.3 µM | Cc1nc(/N=N/c2cc(S(=O)(=O)O)ccc2S(=O)(=O)O)c2c(c1O)COP(=O)(O)OC2 |
| – | 0.0985 µM | 0.24 µM | Cc1nc(/N=N/c2ccc(S(=O)(=O)O)cc2S(=O)(=O)O)c(COP(=O)(O)O)c(C=O)c1O |
